Experimental data published in patent US5723475A, “Arylpiperidine and arylpiperazine derivatives and medicament containing the same” (Suntory Limited, priority 1995, dated 1998).

Tests used:
Sodium Channel = experiment: Veratridine-induced Sodium Channel Activity Inhibitory Effect (suppression of veratridine-induced depolarization in synaptosomes, Rhodamine 6G); type: biochemical, Wistar rats; conditions: compound 0.1 μM; rat brain synaptosomes
Procedure: Veratridine-induced Sodium Channel Activity Inhibitory Effect
The membrane potential of the synaptosomes prepared from the brain membrane of Wistar rats (male, 10 to 12 weeks old) was measured by the method of Aiuchi et al. [T. Aiuchi et al: Biochimi. Biophys. Acta.

T-type Ca^2+ channel = experiment: T-Type Calcium Channel Inhibitory Effect (whole-cell patch clamp, hippocampal CA1 pyramidal cells); type: cell-based, Wistar rats; conditions: suppression of peak current after one minute of application; rat hippocampal CA1 pyramidal cells; read-out: T-type Ca^Z+ channel inhibitory effect IC50
Procedure: T-Type Calcium Channel Inhibitory Effect
The hippocampal CA1 pyramidal cells were isolated from Wistar rats (male/female, 1 week old) in accordance with the method of Takahashi et al. [K. Takahashi et al.; J. Pharmacol. Exp. Ther., 256, 169 (1991)] and the T-type calcium current under conditions of a fixed membrane potential was measured using the whole-cell configuration of the pach clamp technique. The effects of the compounds were evaluated from the rate of suppression of the peak current after one minute of application using the concentration clamp method.

Dopamine D2 receptor = target: T1, Dopamine D2 receptor (Rattus norvegicus, UniProt P61169); experiment: Dopamine D2 Receptor Blocking Effect ([3H] raclopride binding, striatum membrane fraction); set-up: species or system Wister male rats; conditions: 1.0 nM [3H] raclopride, 25° C., one hour
T1 construct: membrane fraction prepared from the striatum of Wister male rats; from tissue; host or cells: striatum of male Wistar rats (6 weeks old), membrane fraction
T1 sequence (P61169 whole entry): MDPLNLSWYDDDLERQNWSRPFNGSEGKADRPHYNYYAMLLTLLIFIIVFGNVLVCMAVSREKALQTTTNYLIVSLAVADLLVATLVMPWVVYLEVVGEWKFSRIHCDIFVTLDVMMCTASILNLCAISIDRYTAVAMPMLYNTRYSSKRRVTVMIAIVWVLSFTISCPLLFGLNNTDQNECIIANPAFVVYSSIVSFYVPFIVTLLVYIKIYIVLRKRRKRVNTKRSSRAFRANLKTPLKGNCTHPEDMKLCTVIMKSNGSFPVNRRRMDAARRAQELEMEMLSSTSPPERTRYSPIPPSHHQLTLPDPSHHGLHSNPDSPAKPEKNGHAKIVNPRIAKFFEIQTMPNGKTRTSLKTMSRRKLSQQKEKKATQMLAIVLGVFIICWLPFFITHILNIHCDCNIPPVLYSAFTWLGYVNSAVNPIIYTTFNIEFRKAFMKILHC
Procedure: Dopamine D2 Receptor Blocking Effect
57 μl of the membrane fraction prepared from the striatum of Wister male rats (6 weeks old) was incubated in a buffer at 25° C. for one hour along with the compound and 1.0 nM [^3 H) raclopride. A GF/C glass filter (0.1% polyethylene imine treatment) was used for separation of B/F, then the radioactivity was measured by a beta plate and the effect of the compound was evaluated.

[1] = acute toxicity, death rate up to 24 hours after intravenous injection; conditions: mouse, in vivo, ddY mice (male, 6 weeks old), read-out: 50% lethal dosage LD50 of acute toxicity
Description: The compounds of the present invention are low in toxicity.

dopamine D2 receptors = conditions: due to its action of blocking dopamine D2 receptors; cited from earlier work

| Compound | Anti-veratridine effect (inhibiting rate %) (Sodium Channel) | also measured |
| --- | --- | --- |
| O=C(CN1CCC(c2ccc(Oc3ccccc3)cc2)CC1)N[C@@H]1C[C@H]1c1ccccc1 (relative stereo) [Compound 56, N-(trans-2-phenyl-1-cyclopropyl)-4-(4-phenoxyphenyl)-1-piperidinacetamide] | 38.4% | – |
| O=C(CN1CCC(c2ccc(Cc3ccc(F)cc3)cc2)CC1)N[C@@H]1C[C@H]1c1ccccc1 (relative stereo) [Compound 57, N-(trans-2-phenyl-1-cyclopropyl)-4-[4-(4-fluorophenyl)methylphenyl]-1-piperidinacetamide] | 32.8% | IC50 (T-type Ca^2+ channel): 1500 nM |
| O=C(CCCN1CC=C(c2ccc(Oc3ccccc3)cc2)CC1)NC1CCCOc2ccccc21 (stereo not drawn) [Compound 29, 5-[4-(4-(4-phenoxyphenyl)-1,2,3,6-tetrahydropyridine-1-yl)butyrylamino]-2,3,4,5-tetrahydro-1-benzoxepine] | 27.9% | – |
| O=C(CCCN1CCC(c2ccc(Oc3ccccc3)cc2)CC1)NC1CCCOc2ccccc21 (stereo not drawn) [Compound 30, 5-[4-(4-(4-phenoxyphenyl)piperidin-1-yl)butyrylamino]-2,3,4,5-5 tetrahydro-1-benzoxepine] | 21.4% | – |
| O=C(CCCN1CC=C(c2ccc(Oc3ccccc3)cc2)CC1)Nc1ccccc1Cc1ccccc1 [Compound 32, 2-benzyl-1-[4-(4-(4-phenoxyphenyl)-1,2,3,6-tetrahydropyridin-1-yl)butyrylamino]benzene] | 35.7% | IC50 (Dopamine D2 receptor): > 1000 nM |
| O=C(CCCN1CCC(c2ccc(Oc3ccccc3)cc2)CC1)Nc1ccccc1Cc1ccccc1 [Compound 33, 2-benzyl-1-[4-(4-(4-phenoxyphenyl)piperidin-1-yl)butyrylamino]benzene] | 37.5% | – |
| O=C(CCCN1CCN(c2ccc(Cc3ccc(F)cc3)cc2)CC1)Nc1ccccc1Cc1ccccc1 [Compound 34, 2-benzyl-1-[4-(4-(4-(4-fluorophenyl)methylphenyl)piperazin-1-yl)butyrylamino]benzene] | 50.2% | IC50 (T-type Ca^2+ channel): 10000 nM; IC50 (Dopamine D2 receptor): 7000 nM |
| O=C(CCCN1CCC(c2ccc(Cc3ccc(F)cc3)cc2)CC1)Nc1ccccc1Cc1ccccc1 [Compound 35, 2-benzyl-1-[4-(4-(4-(4-fluorophenyl)methylphenyl)piperidin-1-yl)butyrylamino]benzene] | 40.6% | – |
| O=C(CCCCCN1CC=C(c2ccc(Oc3ccccc3)cc2)CC1)Nc1ccccc1Cc1ccccc1 [Compound 36, 2-benzyl-1-[6-(4-(4-phenoxyphenyl)-1,2,3,6-tetrahydropyridine-1-yl)hexanoylamino]benzene] | 55.1% | IC50 (Dopamine D2 receptor): > 1000 nM |
| O=C(CCCCCN1CCC(c2ccc(Oc3ccccc3)cc2)CC1)Nc1ccccc1Cc1ccccc1 [Compound 37, 2-benzyl-1-[6-(4-(4-phenoxyphenyl)piperidin-1-yl)hexanoylamino]benzene] | 62% | IC50 (Dopamine D2 receptor): > 1000 nM |
| O=C(CCCCCN1CCN(c2ccc(Cc3ccc(F)cc3)cc2)CC1)Nc1ccccc1Cc1ccccc1 [Compound 38, 2-benzyl-1-[6-(4-(4-(4-fluorophenyl)methylphenyl)piperazin-1-yl)hexanoylamino]benzene] | 56.6% | – |
| Cc1cccc(Cc2ccccc2)c1NC(=O)CN1CCC(c2ccc(Oc3ccccc3)cc2)CC1 [Compound 39, 2-benzyl-1-[2-(4-(4-phenoxyphenyl)piperidin-1-yl)acetylamino]-6-methylbenzene] | 16.6% | – |
| Cc1cccc(Cc2ccccc2)c1NC(=O)CCCN1CCC(c2ccc(Oc3ccccc3)cc2)CC1 [Compound 41, 2-benzyl-1-[4-(4-(4-phenoxyphenyl)piperidin-1-yl)butyrylamino]-6-methylbenzene] | 30.4% | – |
| Cc1cccc(Cc2ccccc2)c1NC(=O)CCCN1CCN(c2ccc(Cc3ccc(F)cc3)cc2)CC1 [Compound 42, 2-benzyl-1-[4-(4-(4-(4-fluorophenyl)methylphenyl)piperazin-1-yl)butyrylamino]-6-methylbenzene] | 16.6% | – |
| Cc1cccc(C)c1NC(=O)CCCN1CCC(c2ccc(Oc3ccccc3)cc2)CC1 [Compound 47, 2,6-dimethyl-1-[4-(4-(4-phenoxyphenyl)piperidin-1-yl)butyrylamino]benzene] | 17.3% | – |
| Cc1cc(C)c(NC(=O)CCCN2CCC(c3ccc(Cc4ccc(F)cc4)cc3)CC2)c(C)c1 [Compound 49, 2,4,6-trimethyl-1-[4-(4-(4-(4-fluorophenyl)methylphenyl)piperidine-1-yl)butyrylamino]benzene] | 17% | – |
| O=C(CCCN1CCN(c2ccc(Cc3ccc(F)cc3)cc2)CC1)N1CCCOc2ccccc21 [Compound 53, 5-[4-(4-(4-(4-fluorophenyl)methylphenyl)piperazin-1-yl)butyryl]-2,3,4,5-tetrahydro-1,5-benzoxazepine] | 33.8% | LD50 at 24 h [1]: 46.5 mg/kg; IC50 (T-type Ca^2+ channel): 2800 nM; IC50 (Dopamine D2 receptor): 1260 nM |
| O=C(CCCN1CCC(c2ccc(Cc3ccc(F)cc3)cc2)CC1)N1CCCOc2ccccc21 [Compound 54, 5-[4-(4-(4-(4-fluorophenyl)methylphenyl)piperidin-1-yl)butyryl]-2,3,4,5-tetrahydro-1,5-benzoxazepine] | 29.4% | – |
| O=C(CN1CCC(c2ccc(Oc3ccccc3)cc2)CC1)Nc1ccccc1 [Compound 59, N-phenyl-4-(4-phenoxyphenyl)-1-piperidinacetamide] | 32.9% | – |
| O=C(CN1CCC(c2ccc(Cc3ccc(F)cc3)cc2)CC1)Nc1ccccc1 [Compound 60, N-phenyl-4-[4-(4-fluorophenyl)methylphenyl]-1-piperidinacetamide] | 33.9% | – |
| O=C(NCCN1CCC(c2ccc(Oc3ccccc3)cc2)CC1)c1ccccc1 [Compound 62, 1-(2-benzoylaminoethyl)-4-(4-phenoxyphenyl)piperidine] | 36% | – |
| O=C(NCCN1CCC(c2ccc(Oc3ccccc3)cc2)CC1)C1(c2ccccc2)CC1 [Compound 63, 1-[2-(1-phenyl-1-cyclopropylcarboxyamino)ethyl]-4-(4-phenoxyphenyl) piperidine] | 36.2% | – |
| C=C(c1ccccc1)N(C)C(=O)CN1CCC(c2ccc(Oc3ccccc3)cc2)CC1 [Compound 64, N-methyl-N-(1-phenylvinyl)-4-(4-phenoxyphenyl)-1-piperidinacetamide] | 31.5% | – |
| Fc1ccc(C(c2ccc(F)cc2)N2CCN(C/C=C/c3ccccc3)CC2)cc1 [Flunarizine] | – | side effect (dopamine D2 receptors): onset of symptoms of Parkinson's disease |
